Data on eight compounds can be found in US10065990B2, “Cyclic peptide compound, and preparation method, pharmaceutical composition and use thereof” (HANGZHOU GUANYU BIO-MEDICAL CO., LTD, priority 2013, dated 2018).

The target of one test is T1, HDAC8 (Homo sapiens, UniProt Q9BY41).
T1 sequence (Q9BY41 1-377): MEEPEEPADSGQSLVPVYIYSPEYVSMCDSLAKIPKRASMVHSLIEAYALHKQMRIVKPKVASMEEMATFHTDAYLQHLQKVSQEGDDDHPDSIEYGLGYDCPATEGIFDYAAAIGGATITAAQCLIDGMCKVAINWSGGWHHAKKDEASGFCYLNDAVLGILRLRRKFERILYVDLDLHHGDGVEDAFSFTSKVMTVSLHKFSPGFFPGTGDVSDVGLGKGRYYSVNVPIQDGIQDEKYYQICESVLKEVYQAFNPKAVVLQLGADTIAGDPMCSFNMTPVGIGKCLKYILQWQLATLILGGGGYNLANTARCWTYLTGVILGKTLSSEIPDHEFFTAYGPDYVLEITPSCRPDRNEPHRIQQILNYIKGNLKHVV
Put plainly: HDAC biochemical activity measurement (fluorescent substrate deacetylation). As to conditions: 37° C. 30 minutes.

The subject of test [1] is KBM-5 (human chronic myelogenous leukemia). Put plainly: MTT cancer cell growth inhibition. Type of test: cell-based. The note with it: Homo sapiens, KBM5, 72 h, MTT, 72 hours incubation, KBM-5 cells; read-out: GI50 KBM-5. Put shortly: (§1)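 Following overnight attachment of 1500 cells per well, each line was exposed to test drug (final 10^−5 to 10^−10 M) for 72 h in a humidified 37° C., 5% CO2 incubator. Four hours with MTT, DMSO dissolution of formazan, and a 570 nm reading yielded viability data used for GI50.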

In test [2] the test system is HCC827 (human non-small cell lung cancer cells). Put plainly: MTT cancer cell growth inhibition. As to conditions: Homo sapiens, HCC827, 72 h, MTT, 72 hours incubation, HCC827 cells; read-out: GI50 HCC827. It is filed as cell-based. In outline:
as §1

Test [3] deals with DU145 (human prostate cancer cells). Put plainly: MTT cancer cell growth inhibition. Type of test: cell-based. The note with it: Homo sapiens, DU-145, 72 h, MTT. In outline:
as §1

Test [4] concerns Hela (human cervical cancer cells). Nature of the test: MTT cancer cell growth inhibition. Type of test: cell-based. As to conditions: Homo sapiens, HeLa, 72 h, MTT. In outline: as §1
Test [5] concerns H1975 (non-small cell lung adenocarcinoma). Put plainly: MTT cancer cell growth inhibition. The note with it: Homo sapiens, NCI-H1975, 72 h, MTT, 72 hours incubation, H1975 cells; read-out: GI50 H1975. Type of test: cell-based. Put shortly:
as §1

Test [6] concerns Bel-7402 (human hepatoma cells). Nature of the test: MTT cancer cell growth inhibition. The note with it: Homo sapiens, Bel-7402, 72 h, MTT, 72 hours incubation, Bel-7402 cells; read-out: GI50 Bel-7402. Type of test: cell-based. Put shortly:
as §1

Test [7] relates to N-87 (human gastric cancer cells). Put plainly: MTT cancer cell growth inhibition. As to conditions: Homo sapiens, 72 h, MTT, 72 hours incubation, N-87 cells; read-out: GI50 N-87. It is filed as cell-based. In outline: as §1
Test [8] deals with U937 (human leukemia cells). Nature of the test: MTT cancer cell growth inhibition. It is filed as cell-based. As to conditions: Homo sapiens, U-937, 72 h, MTT. In outline:
as §1

Test [9] concerns K562 (human leukemia cells). Put plainly: MTT cancer cell growth inhibition. The note with it: Homo sapiens, K562, 72 h, MTT, 72 hours incubation, K562 cells; read-out: GI50 K562. Type of test: cell-based. Put shortly: as §1
Test [10] relates to HT1080 (human fibrosarcoma cells). Put plainly: MTT cancer cell growth inhibition. Type of test: cell-based. As to conditions: Homo sapiens, HT-1080, 72 h, MTT. Put shortly:
as §1

Test [11] deals with BGC-823 (human gastric cancer cells). Nature of the test: MTT cancer cell growth inhibition. Type of test: cell-based. As to conditions: Homo sapiens, BGC-823, 72 h, MTT. Put shortly:
as §1

In the next test the target is HDAC3 (Homo sapiens, UniProt O15379). Nature of the test: HDAC biochemical activity measurement (fluorescent substrate deacetylation).
HDAC3, sequence (O15379 whole entry, species assumed): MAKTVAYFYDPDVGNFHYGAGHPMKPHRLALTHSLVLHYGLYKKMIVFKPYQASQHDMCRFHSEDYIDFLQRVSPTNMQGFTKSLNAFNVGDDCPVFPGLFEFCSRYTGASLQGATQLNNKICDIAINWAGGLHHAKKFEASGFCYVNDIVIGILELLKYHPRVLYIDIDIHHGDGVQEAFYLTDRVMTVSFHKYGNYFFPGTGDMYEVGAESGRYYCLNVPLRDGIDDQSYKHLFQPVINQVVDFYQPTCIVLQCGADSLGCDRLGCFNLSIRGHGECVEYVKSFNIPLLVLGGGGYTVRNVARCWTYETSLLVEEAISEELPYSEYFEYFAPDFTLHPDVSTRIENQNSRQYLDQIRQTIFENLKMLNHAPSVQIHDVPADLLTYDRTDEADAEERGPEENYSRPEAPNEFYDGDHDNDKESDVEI
HDAC3, sequence (Q9Y618 395-489 partner limits assumed, species assumed): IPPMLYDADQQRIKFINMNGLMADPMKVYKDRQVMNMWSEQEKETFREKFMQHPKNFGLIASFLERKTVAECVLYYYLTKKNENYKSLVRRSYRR
The mark [12] stands for this setting: 72 hours incubation, read-out: GI50 Du1.
The mark [13] stands for this setting: 72 hours, present invention, read-out: GI50 Du145, a.
Where [14] appears, read: 72 hours incubation, read-out: GI50 Hela.
The mark [15] stands for this setting: 72 hours, present invention, read-out: GI50 Hela, a.
Where [16] appears, read: 72 hours incubation, read-out: GI50 U93.
[17] abbreviates: 72 hours, present invention, read-out: GI50 U937, a.
[18] abbreviates: 72 hours incubation, read-out: GI50 HT1.
Where [19] appears, read: 72 hours, present invention, read-out: GI50 HT1080, a.
Where [20] appears, read: 72 hours incubation, read-out: GI50 BG.
[21] abbreviates: 72 hours, present invention, read-out: GI50 BGC823, a.
Where [22] appears, read: read-out: IC50 HDAC3, HDAC3, 37° C. 30 minutes.
The mark [23] stands for this setting: DU145 cells, 72 hours incubation, read-out: GI50 Du1.
The mark [24] stands for this setting: Hela cells, 72 hours incubation, read-out: GI50 Hela.
Where [25] appears, read: U937 cells, 72 hours incubation, read-out: GI50 U93.
Setting [26] is: HT1080 cells, 72 hours incubation, read-out: GI50 HT1.
Setting [27] is: BGC-823 cells, 72 hours incubation, read-out: GI50 BG.

Like-named read-outs stand apart in the source and are kept apart here.

Take `C/C=C1\NC(=O)c2cccc(n2)CNC(=O)C[C@@H](/C=C/CCSC(=O)CCCCCCC)OC(=O)[C@H](C)NC1=O` [Compound 11]: the figures for the IC50 on HDAC8 and at HDAC3 (setting [22]) were 71 nM and 45 nM, respectively. Besides, the GI50 (usually the concentration giving 50% growth inhibition) was 62 nM in test [1]; 23 nM in test [2]; 30 nM in test [3] (setting [12]); 33 nM in test [3] (setting [13]); 120 nM in test [4] (setting [14]); 120 nM in test [4] (setting [15]). The GI50 in test [5] was determined as 42 nM; in test [6], 76 nM; in test [7] it was 37 nM; in test [8] (setting [16]), 30 nM; in test [8] (setting [17]), 35 nM; in [9], 63 nM. The GI50 in test [10] (setting [18]) worked out at 140 nM; in test [10] (setting [19]), 140 nM; in [11] (setting [20]) it was 410 nM; in test [11] (setting [21]) it was 410 nM.
Turning to `C/C=C1\NC(=O)c2nc(ccc2F)CNC(=O)C[C@@H](/C=C/CCSC(C)=O)OC(=O)[C@H](C)NC1=O` [Example 63], the IC50 (as a rule, the concentration at which inhibition is half-maximal) against HDAC8 turned out to be 29 nM; against HDAC3, 39 nM. Moreover, the GI50 in [1] was found to be 93 nM; in test [2], 94 nM; in test [3] (setting [12]) it was 50 nM; in test [4] (setting [14]) it was 90 nM; in test [5] it was 34 nM; in [6] it was 94 nM. Moreover, the GI50 turned out to be 59 nM in test [7]; 30 nM in test [8] (setting [16]); 53 nM in test [9]; 90 nM in [10] (setting [18]); 50 nM in test [11] (setting [20]).
For the compound `C/C=C1\NC(=O)c2nc(ccc2SC)CNC(=O)C[C@@H](/C=C/CCS)OC(=O)[C@H](C)NC1=O` [Compound 232], the IC50 was 59 nM against HDAC8 and 21 nM against HDAC3. Also, the GI50 in test [1] turned out to be 8 nM; in test [2], 38 nM; in [3] (setting [23]), 50 nM; in test [4] (setting [24]), 30 nM; in test [5], 56 nM; in test [6], 35 nM. Also, the GI50 in test [7] was found to be 45 nM; in [8] (setting [25]), 90 nM; in test [9] it was 42 nM; in test [10] (setting [26]) it was 20 nM; in test [11] (setting [27]), 50 nM.
On to `C/C=C1\NC(=O)c2nc(ccc2C)CNC(=O)C[C@@H](/C=C/CCSC(=O)CCCCCCC)OC(=O)[C@H](C(C)C)NC1=O` [Compound 243], for which the IC50 on HDAC8 came to 129 nM; at HDAC3 (setting [22]), 48 nM. In addition, the GI50 in test [1] is 93 nM; in [2], 37 nM; in [3] (setting [23]), 130 nM; in [3] (setting [13]), 130 nM; in test [4] (setting [24]) it was 230 nM; in test [4] (setting [15]) it was 230 nM. Also, the GI50 turned out to be 43 nM in test [5]; 35 nM in test [6]; 23 nM in [7]; 870 nM in test [8] (setting [17]); 870 nM in test [8] (setting [25]); 32 nM in test [9]. For the same compound, the GI50 in [10] (setting [26]) amounted to 840 nM; in test [10] (setting [19]), 840 nM; in test [11] (setting [27]), 860 nM; in test [11] (setting [21]), 860 nM.
For `C/C=C1\NC(=O)c2cccc(n2)CNC(=O)C[C@@H](/C=C/CCSC(C)=O)OC(=O)[C@H](C(C)C)NC1=O` [Compound 7], the figures for the IC50 at HDAC8 and on HDAC3 (setting [22]) were 39 nM and 7 nM, respectively. Besides, the GI50 in [1] was 49 nM; in test [2] it was 54 nM; in test [3] (setting [12]), 10 nM; in test [3] (setting [13]) it was 13 nM; in [4] (setting [14]), 40 nM; in test [4] (setting [15]) it was 40 nM. The GI50 amounted to 34 nM in test [5]; 82 nM in [6]; 29 nM in test [7]; 8 nM in test [8] (setting [17]); 41 nM in [9]; 20 nM in [10] (setting [18]). Further, the GI50 worked out at 27 nM in [10] (setting [19]), 30 nM in [11] (setting [20]) and 31 nM in test [11] (setting [21]).
For `C/C=C1\NC(=O)c2cccc(n2)CNC(=O)C[C@@H](/C=C/CCSC(=O)CCCCCCC)OC(=O)[C@H](Cc2cccc3ccccc23)NC1=O` [Compound 239], the IC50 against HDAC8 came to 89 nM; at HDAC3 (setting [22]), 47 nM. For the same compound, the GI50 worked out at 29 nM in test [1]; 31 nM in test [2]; 1 nM in test [3] (setting [13]); 11 nM in test [4] (setting [24]); 11 nM in test [4] (setting [15]); 91 nM in test [5]. The GI50 in [6] is 28 nM; in [7] it was 46 nM; in test [8] (setting [17]), 3 nM; in test [9], 63 nM; in test [10] (setting [26]), 10 nM; in test [10] (setting [19]) it was 11 nM. Moreover, the GI50 was 20 nM in [11] (setting [27]) and 22 nM in [11] (setting [21]).
For `C/C=C1\NC(=O)c2cccc(n2)CNC(=O)C[C@@H](/C=C/CCSC(=O)CCCCCCC)OC(=O)[C@H](C(C)(C)C)NC1=O` [Compound 237], the values for the IC50 at HDAC8 and on HDAC3 (setting [22]) were 43 nM and 35 nM, respectively. The GI50 in [1] stood at 49 nM; in [2], 25 nM; in test [3] (setting [23]), 40 nM; in test [3] (setting [13]), 40 nM; in test [4] (setting [24]) it was 880 nM; in test [4] (setting [15]), 880 nM. Besides, the GI50 was 83 nM in test [5]; 42 nM in test [6]; 58 nM in test [7]; 110 nM in test [8] (setting [17]); 110 nM in [8] (setting [25]); 69 nM in test [9]. In addition, the GI50 in test [10] (setting [26]) turned out to be 990 nM; in test [10] (setting [19]) it was 990 nM; in test [11] (setting [27]), 170 nM; in test [11] (setting [21]), 170 nM.
Consider `C/C=C1\NC(=O)c2nc(ccc2F)CNC(=O)C[C@@H](/C=C/CCSC=O)OC(=O)[C@H](C(C)C)NC1=O` [Example 51], for which the IC50 amounted to 41 nM against HDAC8 and 51 nM at HDAC3. Besides, the GI50 in test [1] came out at 83 nM; in test [2] it was 72 nM; in test [3] (setting [12]), 40 nM; in test [4] (setting [14]) it was 80 nM; in [5] it was 63 nM; in test [6] it was 72 nM. Besides, the GI50 in test [7] turned out to be 65 nM; in [8] (setting [16]), 60 nM; in [9] it was 46 nM; in [10] (setting [18]), 70 nM; in test [11] (setting [20]), 60 nM.
